Assay type in all cases: cell-based
One assay addresses T1, human A3 receptor (Homo sapiens, UniProt P0DMS8).
T1 construct: expressed in transfected cells; host or cells: CHO
T1 sequence (P0DMS8 1-318): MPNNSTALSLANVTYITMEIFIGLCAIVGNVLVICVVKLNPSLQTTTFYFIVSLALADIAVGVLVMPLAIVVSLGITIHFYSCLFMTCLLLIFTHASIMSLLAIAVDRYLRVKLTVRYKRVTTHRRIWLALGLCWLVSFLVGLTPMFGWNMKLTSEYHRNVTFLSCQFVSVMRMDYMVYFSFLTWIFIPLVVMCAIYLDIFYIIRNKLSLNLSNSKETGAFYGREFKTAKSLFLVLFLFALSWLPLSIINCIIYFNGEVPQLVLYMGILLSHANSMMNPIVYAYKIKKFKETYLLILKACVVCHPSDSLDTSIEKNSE
The experiment in a line: functional cAMP (HTRF) assay, recombinant CHO cells expressing human A3 receptor, forskolin, agonist IB-MECA. The procedure: The functional activities of human A2A, A2B, A1 and A3 receptors were determined by quantification of cAMP, being the second messenger for adenosine receptors.
For human A1 and A3 receptors, recombinant CHO cells, expressing either A1 or A3-receptor, were used. As both receptors couple to Gi proteins, the assay protocol was adapted:
Cells were seeded into 384-well plates, forskolin, test compounds and agonists (CPA for A1- and IB-MECA for A3-receptor) were added. After 30 min incubation, HTRF reagents (cAMP dynamic 2, Cis Bio) were added and the cellular cAMP levels were determined using the ENVISION (Perkin Elmer) plate reader. Obtained raw data were normalized against the inhibitor control and the neural control (DMSO) and the normalized data were fitted using GeneData software.

For a further assay, the target named is T2, A2B receptors (Homo sapiens, UniProt P29275).
T2 sequence (P29275 1-332): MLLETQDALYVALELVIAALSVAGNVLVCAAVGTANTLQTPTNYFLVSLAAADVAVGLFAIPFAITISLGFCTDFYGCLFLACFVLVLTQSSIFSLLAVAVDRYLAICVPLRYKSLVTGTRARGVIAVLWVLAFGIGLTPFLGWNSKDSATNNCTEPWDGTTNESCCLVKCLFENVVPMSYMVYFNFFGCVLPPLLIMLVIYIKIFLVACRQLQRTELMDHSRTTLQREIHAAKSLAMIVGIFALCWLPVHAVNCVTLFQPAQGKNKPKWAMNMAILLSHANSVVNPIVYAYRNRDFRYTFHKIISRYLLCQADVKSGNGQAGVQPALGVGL
The experiment in a line: functional cAMP (HTRF) assay, recombinant HEK293 cells expressing human A2B receptor, agonist NECA. On the set-up: expressed in transfected cells; host or cells: HEK293.

The target in a further assay is T3, human A2A receptor (Homo sapiens, UniProt P29274).
T3 construct: expressed in transfected cells; host or cells: HEK293
The experiment in a line: functional cAMP (HTRF) assay, recombinant HEK293 cells expressing human A2A receptor, agonist NECA.

The values that follow come from patent publication US11453647B2, “Benzimidazole derivatives as adenosine receptor antagonists” (Merck Patent GmbH, priority 2017, dated 2022).

T3 sequence (P29274 whole entry): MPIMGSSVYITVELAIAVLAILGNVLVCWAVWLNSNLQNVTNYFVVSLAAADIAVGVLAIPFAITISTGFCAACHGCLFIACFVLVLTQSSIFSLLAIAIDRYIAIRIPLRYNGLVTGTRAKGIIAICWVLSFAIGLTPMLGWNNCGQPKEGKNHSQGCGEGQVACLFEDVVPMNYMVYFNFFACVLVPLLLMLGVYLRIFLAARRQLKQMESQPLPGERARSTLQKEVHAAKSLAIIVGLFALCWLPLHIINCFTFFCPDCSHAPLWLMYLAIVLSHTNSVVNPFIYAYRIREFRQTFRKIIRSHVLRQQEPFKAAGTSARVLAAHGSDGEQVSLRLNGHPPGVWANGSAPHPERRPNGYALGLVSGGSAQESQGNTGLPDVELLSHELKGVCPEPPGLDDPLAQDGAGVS

Take `COc1ccc(-c2ccccc2)c2nc(NC(=O)c3ccc(F)cc3)[nH]c12` [compound 2, 4-Fluoro-N-(7-methoxy-4-phenyl-1H-benzoimidazol-2-yl)-benzamide]: the results for the IC50 at human A3 receptor, at A2B receptors and at human A2A receptor were under 10 nM, under 100 nM and under 10 nM, respectively.
As to `COc1ccc(-c2ccccc2)c2nc(NC(=O)c3ccnc(Br)c3)[nH]c12` [compound 3, 2-Bromo-N-(7-methoxy-4-phenyl-1H-benzoimidazol-2-yl)-isonicotinamide], the IC50 on human A3 receptor is under 10 nM; on A2B receptors, under 100 nM; on human A2A receptor, under 10 nM.
In the case of `COc1ccc(-c2ccccc2)c2nc(NC(=O)c3ccc(Br)nc3)[nH]c12` [compound 5, 6-Bromo-N-(7-methoxy-4-phenyl-1H-benzoimidazol-2-yl)-nicotinamide], the results for the IC50 on human A3 receptor, on A2B receptors and on human A2A receptor were under 10 nM, under 100 nM and under 10 nM, respectively.
On to `COc1ccc(C2CCCCC2)c2nc(NC(=O)c3ccnc(N4CCOCC4)c3)[nH]c12` [compound 17, N-(4-Cyclohexyl-7-methoxy-1H-benzoimidazol-2-yl)-2-morpholin-4-yl-isonicotinamide], for which the IC50 on human A3 receptor is under 1000 nM; at A2B receptors, over 1000 nM; on human A2A receptor, under 10 nM.
On the same counts, the results for `COc1ccc(-c2ccccc2)c2nc(NC(=O)N3CCC(C)CC3)[nH]c12` [compound 28, 4-Methyl-piperidine-1-carboxylic acid (7-methoxy-4-phenyl-1H-benzoimidazol-2-yl)-amide] are under 1000 nM, under 1000 nM and under 10 nM.
The matching figures for `COc1ccc(-c2cnn(C)c2)c2nc(NC(=O)c3ccnc(N4CCC(C)(O)C4)c3)[nH]c12` (stereo not drawn) [compound 30, 2-(3-Hydroxy-3-methyl-pyrrolidin-1-yl)-N-[7-methoxy-4-(1-methyl-1H-pyrazol-4-yl)-1H-benzoimidazol-2-yl]-isonicotinamide]: under 1000 nM, over 1000 nM and under 10 nM.
Consider `COc1ccc(-c2cnn(C)c2)c2nc(NC(=O)c3cnc(C)o3)[nH]c12` [compound 215, N-[7-methoxy-4-(1-methyl-1H-pyrazol-4-yl)-1H-1,3-benzodiazol-2-yl]-2-methyl-1,3-oxazole-5-carboxamide], for which the half-inhibitory concentration (IC50) on A2B receptors is under 100 nM; on human A2A receptor, under 10 nM.
In the case of `COc1ccc(-c2cnn(CC(C)(C)O)c2)c2[nH]c(NC(=O)N3CCC(C)(O)CC3)nc12` [compound 238, 4-hydroxy-N-{7-[1-(2-hydroxy-2-methylpropyl)-1H-pyrazol-4-yl]-4-methoxy-1H-1,3-benzodiazol-2-yl}-4-methylpiperidine-1-carboxamide], the half-maximal inhibitory concentration (IC50) on human A3 receptor is over 1000 nM; on human A2A receptor it was under 100 nM.
With `COc1ccc(-c2cccc(F)c2)c2nc(NC(=O)c3cnn(C)c3)[nH]c12` [compound 239, N-[4-(3-fluorophenyl)-7-methoxy-1H-1,3-benzodiazol-2-yl]-1-methyl-1H-pyrazole-4-carboxamide], the IC50 on A2B receptors and on human A2A receptor was under 10 nM throughout.
`COc1ccc(-c2cnn(C)c2)c2nc(NC(=O)C3CNC(=O)C3)[nH]c12` (stereo not drawn) [compound 246, N-[7-methoxy-4-(1-methyl-1H-pyrazol-4-yl)-1H-1,3-benzodiazol-2-yl]-5-oxopyrrolidine-3-carboxamide]: the IC50 is over 1000 nM at human A3 receptor and under 100 nM at human A2A receptor.
The matching figures for `COc1ccc(-c2cnn(C)c2)c2nc(NC(=O)NCc3nccs3)[nH]c12` [compound 247, 3-[7-methoxy-4-(1-methyl-1H-pyrazol-4-yl)-1H-1,3-benzodiazol-2-yl]-1-[(1,3-thiazol-2-yl)methyl]urea]: over 1000 nM and under 100 nM.
In the case of `COc1ccc(-c2cnn(C)c2)c2nc(NC(=O)N[C@@H]3CNC[C@@H]3F)[nH]c12` [compound 249, 1-[(3R,4S)-4-fluoropyrrolidin-3-yl]-3-[7-methoxy-4-(1-methyl-1H-pyrazol-4-yl)-1H-1,3-benzodiazol-2-yl]urea], at human A2A receptor, the concentration for half-maximal inhibition (IC50) is under 100 nM.
On to `COc1ccc(C2CCOCC2)c2nc(NC(=O)c3cccc(N=S(C)(C)=O)c3)[nH]c12` [compound 263, 3-{[dimethyl(oxo)-lambda6-sulfanylidene]amino}-N-[7-methoxy-4-(oxan-4-yl)-1H-1,3-benzodiazol-2-yl]benzamide], for which the concentration for half-maximal inhibition (IC50) at human A3 receptor was over 1000 nM; on human A2A receptor, under 100 nM.
In the case of `COCCn1cc(C(=O)Nc2nc3c(-c4ccc5cc[nH]c5c4)ccc(OC)c3[nH]2)cn1` [compound 280, N-[4-(1H-indol-6-yl)-7-methoxy-1H-1,3-benzodiazol-2-yl]-1-(2-methoxyethyl)-1H-pyrazole-4-carboxamide], the IC50 on A2B receptors and at human A2A receptor was under 100 nM in each case.
With `COc1ccc(-c2ccccc2)c2nc(NC(=O)c3cnc4ccccn34)[nH]c12` [compound 286, N-(7-methoxy-4-phenyl-1H-1,3-benzodiazol-2-yl)imidazo[1,2-a]pyridine-3-carboxamide], the half-maximal inhibitory concentration (IC50) at A2B receptors and on human A2A receptor was under 100 nM in each case.
Regarding `COc1ccc(-c2ccccc2)c2nc(NC(=O)c3cnc4ncccn34)[nH]c12` [compound 289, N-(7-methoxy-4-phenyl-1H-1,3-benzodiazol-2-yl)imidazo[1,2-a]pyrimidine-3-carboxamide], the IC50 on A2B receptors is under 10 nM; on human A2A receptor, under 100 nM.
As for `COc1ccc(-c2ccccc2)c2nc(NC(=O)c3c[nH]c(-c4ccncc4)n3)[nH]c12` [compound 290, N-(7-methoxy-4-phenyl-1H-1,3-benzodiazol-2-yl)-2-(pyridin-4-yl)-1H-imidazole-4-carboxamide], the IC50 on A2B receptors and at human A2A receptor was under 100 nM in each case.
Take `COc1ccc(-c2ccnc(C)c2)c2[nH]c(NC(=O)c3c[nH]cn3)nc12` [compound 299, N-[4-methoxy-7-(2-methylpyridin-4-yl)-1H-1,3-benzodiazol-2-yl]-1H-imidazole-4-carboxamide]: the concentration for half-maximal inhibition (IC50) at A2B receptors and at human A2A receptor was under 100 nM throughout.
In the case of `COc1cc(C#N)c(-c2ccccc2)c2nc(NC(=O)c3cnn(C)c3)[nH]c12` [compound 300, N-(5-cyano-7-methoxy-4-phenyl-1H-1,3-benzodiazol-2-yl)-1-methyl-1H-pyrazole-4-carboxamide], the 50% inhibitory concentration (IC50) at A2B receptors and on human A2A receptor was under 100 nM each time.
Turning to `COCCn1cc(C(=O)Nc2nc3c(-c4ccn5ccnc5c4)ccc(OC)c3[nH]2)cn1` [compound 301, N-(4-{imidazo[1,2-a]pyridin-7-yl}-7-methoxy-1H-1,3-benzodiazol-2-yl)-1-(2-methoxyethyl)-1H-pyrazole-4-carboxamide], the IC50 at human A3 receptor was under 1000 nM; at human A2A receptor, under 100 nM.
On to `COCCn1cc(C(=O)Nc2nc3c(-c4ccc5[nH]ccc5c4)ccc(OC)c3[nH]2)cn1` [compound 302, N-[4-(1H-indol-5-yl)-7-methoxy-1H-1,3-benzodiazol-2-yl]-1-(2-methoxyethyl)-1H-pyrazole-4-carboxamide], for which the IC50 at A2B receptors and on human A2A receptor was under 100 nM in each case.
Turning to `COc1ccc(-c2ccc3[nH]ccc3c2)c2nc(NC(=O)N3CCC(C)(O)CC3)[nH]c12` [compound 303, 4-hydroxy-N-[4-(1H-indol-5-yl)-7-methoxy-1H-1,3-benzodiazol-2-yl]-4-methylpiperidine-1-carboxamide], the figures for the half-inhibitory concentration (IC50) on human A3 receptor and at human A2A receptor were over 1000 nM and under 100 nM, respectively.
Turning to `COc1ccc(-c2ccccc2)c2nc(NC(=O)c3cnn(C)c3)[nH]c12` [compound 306, N-(7-methoxy-4-phenyl-1H-1,3-benzodiazol-2-yl)-1-methyl-1H-pyrazole-4-carboxamide], the values for the IC50 at A2B receptors and at human A2A receptor were under 10 nM and under 100 nM, respectively.
On the same counts, the results for `COCCn1cc(C(=O)Nc2nc3c(-c4ccccc4)ccc(OC)c3[nH]2)cn1` [compound 307, N-(7-methoxy-4-phenyl-1H-1,3-benzodiazol-2-yl)-1-(2-methoxyethyl)-1H-pyrazole-4-carboxamide] are under 10 nM and under 100 nM.
The matching figures for `COc1ccc(-c2ccccc2)c2nc(NC(=O)c3cnc(C)o3)[nH]c12` [compound 308, N-(7-methoxy-4-phenyl-1H-1,3-benzodiazol-2-yl)-2-methyl-1,3-oxazole-5-carboxamide]: under 100 nM and under 100 nM.
Regarding `COc1ccc(-c2ccccc2)c2nc(NC(=O)c3ccc(C(=O)N(C)C)cc3)[nH]c12` [compound 309, N4-(7-methoxy-4-phenyl-1H-1,3-benzodiazol-2-yl)-N1,N1-dimethylbenzene-1,4-dicarboxamide], the half-inhibitory concentration (IC50) is under 10 nM at A2B receptors and under 100 nM at human A2A receptor.
